The test system of data set [1] is HCAEC. Briefly: Chemotaxis towards VEGF-A, modified Boyden chamber, HCAEC. In kind it is cell-based, human. The settings on record: 2 mM Melatonin for 48 hours; VEGF-A 10 ng/ml; migration 4 hours; performed only once. As for the experimental part: Chemotaxis experiments were performed using a modified Boyden chamber. The apparatus consists of two multi-well chambers separated by a filter containing pores of uniform size. A solution containing a chemokine or chemotactic factor is placed in the lower/bottom chamber and a cell suspension is placed in the upper chamber. Cells can migrate through the pores across the filter and towards the chemoattractant in the lower chamber. Cells that migrated across the filter and remain attached to the lower side of the membrane are counted. Data are expressed in terms of migration index: the number of cells that migrated in response to agonist stimulation compared to the number of cells that migrated randomly, i.e. to medium only. Chemotaxis experiments so far were only performed with HCAEC. For these cells a 25×80 mm polycarbonate filter, […] (PVP) free was used (Whatman) with a pore size of […]. Before migration the filter was coated with collagen. Endothelial cells were incubated with Melatonin at 2 mM prior to and during migration. […] Cells were stimulated with VEGF-A at 10 ng/ml. Cells were allowed to migrate for 4 hours at 37° C./5% CO2. At the end of migration, cells were fixed on the filter, stained with Giemsa and counted using a regular optic microscope.

Data set [2] relates to human coronary artery endothelial cells (HCAEC). Briefly: CellTiter 96 One solution (MTS) cell proliferation assay, HCAEC. In kind it is cell-based. Here is the method:
(§1) Human coronary artery endothelial cells (HCAEC) were purchased from Cambrex and human coronary artery smooth muscle cells (HCASMC) were purchased from Promocell. Cells were used for experiments between passage 4 and passage 12. Both cell types were cultured in their respective complete culture medium with the following composition: HCAEC: Endothelial Growth Media-2 MV: hEGF, Hydrocortisone, GA-1000, FBS 5%, VEGF, hFGF-B, R3-IGF-1, Ascorbic Acid Medium was changed every other day. 24 hours prior to growth factor stimulation, the medium was replaced by fresh culture medium, however, without growth factors to increase the cellular sensitivity to the subsequent growth factor stimulation. Subconfluent HCAEC were stimulated with 10 ng/ml of VEGF-A, whereas subconfluent HCASMC were stimulated with 10 ng/ml of PDGF-BB. Likewise, both cell types were stimulated with 25% of human serum (final concentration). All proliferation and cytotoxicity experiments were performed on cells cultured on 96 well plates (Costar). The CellTiter 96 One solution cell proliferation assay from Promega was used to assess cell proliferation in a 96-well plate. This assay makes use of the MTS tetrazolium compound as a cellular substrate. MTS is bioreduced by living cells into a colored formazan product that is soluble in tissue culture medium and absorbs light at 490 nm. The quantity of formazan produced is directly proportional to the number of living cells in culture. After 24 h stimulation, 20 μl of MTS reagent was added to the cells cultured in 100 μl of medium per well. After 2 to 4 hours of incubation at 37° C., 5% CO2, the absorbance at 490 nm was recorded using a 96-well plate reader (Tecan).

In data set [3] the test system is HUVEC (Human Umbilical Vein Endothelial Cells). Briefly: [3H]-thymidine incorporation, HUVEC stimulated with VEGF-A. The data set is classed as cell-based. The settings on record: VEGF A 10 ng/ml 24 hours. As for the experimental part: To investigate, whether melatonin has similar effects on other cell types, HUVEC (Human Umbilical Vein Endothelial Cells, Promocell) were tested. HUVEC were cultured in the corresponding complete medium (Endothelial Cell Growth Medium: ECGS/H 0.4%, Fetal Calf Serum 2%, Epidermal Growth Factor 0.1 ng/ml, Hydrocortisone 1 μg/ml, basic Fibroblast Factor 1 ng/ml, Amphotericin B 50 ng/ml, Gentamicin 50 μg/ml). 24 hours prior to stimulation, the medium was replaced by a medium containing 2% serum and antibiotics, but devoid of the other complements. Then, HUVEC were stimulated with 10 ng/ml of VEGF-A for 24 hours. HUVEC were incubated for 48 hours with Melatonin and stimulated for 24 hours with VEGF-A at 10 ng/ml. After 24 hours of stimulation, the cells were incubated with radioactive [^3H]-thymidine. Two hour later, the medium was removed and cell-bound DNA was precipitated using 5% TCA (Trichloroacetic acid). Then, [^3H]-thymidine incorporation was measured using a beta-counter.

In data set [4] the test system is HCAEC. Briefly: CytoTox-ONE LDH release cytotoxicity assay, HCAEC. The data set is classed as cell-based, human. The settings on record: 48 hours, Melatonin 0.2 to 6 mM. As for the experimental part:
(§2) Cytotoxicity experiments were performed with cells cultured on 96-well plates. The CytoTox-ONE™ Assay from Promega was used to assess the membrane integrity of cells. This test is based on a fluorometric method to estimate the number of non viable cells present in multiwell plates by measuring the release of lactate dehydrogenase (LDH) from cells with damaged membranes. Subconfluent cells were incubated for 48 hours with Melatonin at concentrations between 0.2 and 6 mM. During the 48 h Melatonin incubation, the medium was not changed to avoid removal of any detached cells. As a positive control three wells of untreated cells were incubated with lysis buffer (delivered with the assay) before measurement. At the end of the Melatonin incubation period, a volume of CytoTox-ONE reagent equal to the volume of cell culture medium present in each well was added. After 10 min incubation at 22° C. (room temperature), 50 μl of stop solution was added per 100 μl of CytoTox-ONE reagent added. The plate was shaken for 10 seconds and fluorescence was recorded with an excitation wavelength of 560 nm and an emission wavelength of 590 nm (Spectramax M2 fluorescence plate reader, Molecular devices).

For the next data set, the system named is HCASMC. Briefly: CytoTox-ONE LDH release cytotoxicity assay, HCASMC. The data set is classed as cell-based, human. The note with it: 48 hours, Melatonin 0.2 to 6 mM. Here is the method:
as §2
For orientation: LDH leaks from cells whose membrane has failed.

For data set [5], the system named is human coronary artery smooth muscle cells (HCASMC). Briefly: CellTiter 96 One solution (MTS) cell proliferation assay, HCASMC. In kind it is cell-based. Here is the method:
as §1, with “HCASMC: Smooth Muscle Cell” for “HCAEC: Endothelial”, “Medium 2: Epidermal Growth Factor (EGF), basic Fibroblast Factor (FGF), Insulin, Fetal Calf Serum (FCS)” for “Media-2 MV: hEGF, Hydrocortisone, GA-1000, FBS”, “Amphotericin B, Gentamicin.” for “VEGF, hFGF-B, R3-IGF-1, Ascorbic Acid”

Where “and” joins values, the source holds several entries; their conditions need not be identical. Equal entries are not always repeated.

Regarding `COc1ccc2[nH]cc(CCNC(C)=O)c2c1` [Melatonin, N-acetyl-5-methoxytryptamine], the “effect on chemotactic response towards VEGF-A” value in the data set on HCAEC [1] is on record as “did not have any significant effect”. For the same compound, the “concentration at which proliferation is strongly inhibited” value in data set [2] (HCAEC) and in data set [5] (HCASMC) was “higher than 0.2 mM” throughout. Also, the “effect on cell number” value in data set [2] (Melatonin between 1 mM and 6 mM) is “dramatic decrease in cell number”. Besides, the “concentration of maximal effect” value in data set [2] (tested 1 μM to 6 mM) is 3 mM and 6 mM. Besides, in data set [2] (up to 0.1 mM Melatonin), the “sensitivity of HCAEC to Melatonin” value is recorded as “not sensitive”. Also, the “effect on HUVEC ([3H]-thymidine incorporation)” value in data set [3] (0.2 mM Melatonin, 48 hours) is reported as “inhibitory effect”. Besides, the “VEGF-A induced [3H]-thymidine incorporation” value in data set [3] (Melatonin 48 hours) is listed as “completely inhibited”. In addition, the “cytotoxic effect (LDH release)” value in the data set on HCAEC [4] and in the data set on HCASMC was “does not induce any detectable cytotoxic effect” each time. Also, the “effect on number of smooth muscle cells” value in data set [5] (1 mM Melatonin, 24 hours pre-treatment, PDGF BB 10 ng/ml 24 h) is on record as “significant decrease in the number of smooth muscle cells”. For the same compound, the “effect on proliferation of HCASMC” value in data set [5] (Melatonin up to 0.1 mM, PDGF BB 10 ng/ml 24 h) is “no significant effect”. Besides, the “concentration of maximal inhibitory effect” value in data set [5] (tested up to 10 mM) is on record as 5 mM.

Source of the values: patent publication US20080050413A1, “Medical stent provided with a combination of melatonin and paclitaxel” (priority 2006, published 2008).
